In US20240401101A1, “A LIVE CELL ASSAY TO DETERMINE PERMEABILITY OF TEST MOLECULES TO AND/OR WITHIN THE PEPTIDOGLYCAN SCAFFOLD OF BACTERIA CELLS” (priority 2021, published 2024):

Legend:
Assay type in all cases: cell-based, Mycobacterium smegmatis
M. smegmatis mc^2 155 [1] = assay: PAC-MAN competition with azide-modified test molecules; conditions: concentration dependent analysis, 2 h, then Fl-az; read-out: EC50 of apparent permeation
Procedure: Competition with test molecules. To a 96-well plate added 100 uL DBCO-modified M. smegmatis mc^2 155 cells pre well with 50 μM test molecules, in triplicate respectively. The plate was incubated in 37° C. for 2 h. The cells were spun down for 2 min at 3000 g. The supernatant was decanted, and 50 μM FAM-N3 was then added to each well, followed by incubation in 37° C. for 1 h. The cells were then spun down again, and the pellets were washed with PBST for 2 times and fixed with 4% formaldehyde for 15 mins. The samples were then analyzed by Attune™ NxT Acoustic Focusing Cytometer.
LLysN3 competition. To a 96-well plate added 100 uL DBCO-modified M. smegmatis mc^2 155 cells pre well with different concentration of L-Lys-N3 described in the main text, in triplicate respectively. The plate was incubated in 37° C. for 2 h. The cells were spun down for 2 min at 3000 g. […] The samples were then analyzed by Attune® NxT Acoustic Focusing Cytometer.
Next, we set out to benchmark the ability of the assay to report on the permeability of a set of test small molecules by performing a pilot screen with azide-conjugated compounds. […] Next, cells are treated with Fl-az to quantify the level of unreacted DBCO epitopes.^42 Finally, cells are analyzed by flow cytometry to measure total cellular fluorescence.

M. smegmatis mc^2 155 [2] = assay: Example IV: metabolic PG labeling of Msm with DBCO tags followed by azide fluorophore, flow cytometry
Procedure: General method for bacterial peptidoglycan modification. M. smegmatis strains was inoculated from the glycerol stock to the according media and grown for 24 hours until 0.5-0.6 OD, tetrapeptide probes were added to the media and the cells were grown overnight to achieve stationary phase. The cells were harvested the next day and spun down for 2 min at 3000 g, washed with phosphate buffered saline with tween80 (PBST, PBS with 0.05% tween 80) two times and resuspended in PBST to yield DBCO-modified M. smegmatis cells for further labeling and other experiments.
(§1) DBCOtetra compared with stereo control and single amino acid DBCO. M. smegmatis mc^2 155 was inoculated from stationary phase in 1:100 dilution to a fresh 7H9 media with ADC. 25 μM Dap-DBCO, DBCOtetra or DBCOtera(L) were added to the culture tubes respectively, and the cells were grown for 36-40 hours until stationary phase. The cells were harvested and spun down for 2 min at 3000 g, washed with PBST two times and resuspended in PBST. To a 96-well plate added 100 μL cells pre well with 50 μM FAM-N3 in triplicate. The plate was incubated in 37° C. for 1 h and spun down for 2 min at 3000 g. The supernatant was decanted, and the pellets were washed with PBST for 2 times and fixed with 4% formaldehyde for 15 mins. The samples were then analyzed by Attune™ NxT Acoustic Focusing Cytometer.
as §1, with “Confirm for click chemistry on PG.” for “DBCOtetra compared with stereo control and single amino acid DBCO.”, “μM” for “μM Dap-DBCO,”, “FL-tetra” for “DBCOtera(L)”, “uL” for “μL”, “FAM-N3 or 5-carboxy fluorescein accordingly” for “FAM-N3”
as §1, with “Different concentrations of DBCOtetra.” for “DBCOtetra compared with stereo control and single amino acid DBCO.”, “ADC. 5 μM, 10 μM or” for “ADC.”, “μM” for “μM Dap-DBCO,”, “DBCOtetra” for “DBCOtetra or DBCOtera(L)”, “1h” for “1 h”
Different concentration of FAM-N3 and different time. M. smegmatis mc^2 155 was inoculated from stationary phase in 1:100 dilution to a fresh 7H9 media with ADC. 25 μM DBCOtetra were added to the culture tubes, and the cells were grown for 36-40 hours until stationary phase. The cells were harvested and spun down for 2 min at 3000 g, washed with PBST two times and resuspended in PBST. To a 96-well plate added 100 μL cells pre well with different concentration of FAM-N3 described in the main text, 9 wells each. […] The samples were then analyzed by Attune™ NxT Acoustic Focusing Cytometer. […]

Msm ldtΔ5 (PM2750 Δ5) = assay: TetD labeling of Ldt knock out strain; conditions: 25 μM TetD, 50 μM Fl-Az
Procedure: Ldt knock down strain. M. smegmatis mc^2 155 and PM2750 Δ5 were inoculated from the glycerol stock to the according media and grown for 24 hours until 0.5-0.6 OD, 25 μM DBCOtetra were added to the media, and the cells were grown overnight to achieve stationary phase. The cells were harvested and spinned down for 2 min at 3000 g, washed with PBST two times and resuspended in PBST. To a 96-well plate added 100 uL cells pre well with 50 μM FAM-N3 accordingly in triplicate. The plate was incubated in 37° C. for 1 h and spun down for 2 min at 3000 g. The supernatant was decanted, and the pellets were washed with PBST for 2 times and fixed with 4% formaldehyde for 15 mins. The samples were then analyzed by Attune™ NxT Acoustic Focusing Cytometer.

M. smegmatis cells = assay: Ethidium bromide and Nile red whole-cell accumulation assay; conditions: cells treated with vehicle or TetD (25 or 50 μM); both dyes
Procedure: Ethidium bromide and Nile red whole-cell accumulation assay. To a Costar 96-well half area black opaque flat bottom plate added 100 uL DBCO-modified M. smegmatis cells each well with 5 μM ethidium bromide and 10 μM Nile red in triplicates, respectively. The fluorescent intensity at different time points were taken by a Synergy H1 microplate reader for 90 min with 3 min intervals and continuously orbital shaking. Wavelengths ethidium bromide, excitation 530 nm, emission 590 nm; Nile red, excitation 540 nm, emission 630 nm.

SMILES	EC50 (M. smegmatis mc^2 155 [1]) [µM]	PG labeling levels (fluorescence) above vehicle treated cells (M. smegmatis mc^2 155 [2]; Msm, metabolic label then Fl-az) [fold]	fluorescence levels of Msm (M. smegmatis mc^2 155 [2]; metabolic label and/or fluorophore as named)	decrease of fluorescence levels relative to the parental cells (Msm ldtΔ5 (PM2750 Δ5)) [fold]	accumulation of the permeability probe (EtBr or Nile Red) (M. smegmatis cells)
[N-]=[N+]=NCCCC[C@H](N)C(=O)O [Lys]	100	–	–	–	–
C[C@H](NC(=O)CCC(=O)N1Cc2ccccc2C#Cc2ccccc21)C(=O)N[C@H](CCC(=O)N[C@@H](CCCCN)C(=O)N[C@H](C)C(=O)O)C(N)=O [TetD]	–	~85	concentration-dependent increase in cellular fluorescence	~7	no significant change in the accumulation of the permeability probe
